According to US11878975B2, “Substituted indole compounds useful as TLR inhibitors” (BRISTOL-MYERS SQUIBB COMPANY, priority 2017, dated 2024):
pIC50: −log10 of the molar value.

How the values were obtained:
Type in all cases: cell-based
human TLR7 = target: T1, human TLR7 (Homo sapiens, UniProt Q9NYK1); assay: TLR7 inhibition reporter assay (HEK-Blue cells, SEAP reporter, gardiquimod stimulation); conditions: HEK-Blue cells overexpressing human TLR7, SEAP reporter, gardiquimod 7.5 μM
T1 construct: host or cells: HEK-Blue cells
T1 sequence (Q9NYK1 27-1049): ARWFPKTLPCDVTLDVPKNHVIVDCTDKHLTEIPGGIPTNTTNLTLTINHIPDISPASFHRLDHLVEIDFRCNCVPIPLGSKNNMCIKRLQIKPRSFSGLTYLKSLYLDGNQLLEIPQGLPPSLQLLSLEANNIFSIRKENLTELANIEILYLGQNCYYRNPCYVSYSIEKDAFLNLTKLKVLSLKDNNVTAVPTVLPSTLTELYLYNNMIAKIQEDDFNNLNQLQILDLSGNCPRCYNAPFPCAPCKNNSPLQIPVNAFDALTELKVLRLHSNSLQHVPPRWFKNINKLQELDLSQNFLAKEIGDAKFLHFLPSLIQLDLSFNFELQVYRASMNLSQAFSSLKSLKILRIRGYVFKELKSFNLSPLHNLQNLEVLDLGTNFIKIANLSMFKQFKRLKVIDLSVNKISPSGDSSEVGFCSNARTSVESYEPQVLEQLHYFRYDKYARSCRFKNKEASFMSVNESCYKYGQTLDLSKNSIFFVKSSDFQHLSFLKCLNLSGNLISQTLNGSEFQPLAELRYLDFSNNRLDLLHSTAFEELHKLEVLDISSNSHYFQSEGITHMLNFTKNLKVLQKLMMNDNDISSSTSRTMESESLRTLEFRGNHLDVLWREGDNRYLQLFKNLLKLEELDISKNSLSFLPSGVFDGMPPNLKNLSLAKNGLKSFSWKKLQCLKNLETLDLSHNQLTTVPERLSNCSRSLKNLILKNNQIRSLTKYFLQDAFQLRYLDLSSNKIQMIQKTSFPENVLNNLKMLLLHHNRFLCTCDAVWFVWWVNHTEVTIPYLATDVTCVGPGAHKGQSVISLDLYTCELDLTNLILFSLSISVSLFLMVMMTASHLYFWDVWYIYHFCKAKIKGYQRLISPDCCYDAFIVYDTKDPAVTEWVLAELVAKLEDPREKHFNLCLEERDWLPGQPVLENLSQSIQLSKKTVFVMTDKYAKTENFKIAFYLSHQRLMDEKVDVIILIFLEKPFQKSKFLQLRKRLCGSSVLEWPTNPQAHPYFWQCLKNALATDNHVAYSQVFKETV
Summary of the method: (§1)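 Percent inhibition is derived from SEAP signal, scaled between agonist-plus-DMSO wells and wells given a known inhibitor. Test compounds (0.05 nM–50 μM) are pre-incubated 30 min at room temperature before agonist addition (TLR7: 7.5 μM gardiquimod; TLR8: 15.9 μM R848; TLR9: 5 nM ODN2006) and 22 h culture at 37 °C.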

human TLR9 = target: T2, human TLR9 (Homo sapiens, UniProt Q9NR96); assay: TLR9 inhibition reporter assay (HEK-Blue cells, SEAP reporter, ODN2006 stimulation); conditions: HEK-Blue cells overexpressing human TLR9, SEAP reporter, ODN2006 5 nM
T2 construct: host or cells: HEK-Blue cells
T2 sequence (Q9NR96 26-1032): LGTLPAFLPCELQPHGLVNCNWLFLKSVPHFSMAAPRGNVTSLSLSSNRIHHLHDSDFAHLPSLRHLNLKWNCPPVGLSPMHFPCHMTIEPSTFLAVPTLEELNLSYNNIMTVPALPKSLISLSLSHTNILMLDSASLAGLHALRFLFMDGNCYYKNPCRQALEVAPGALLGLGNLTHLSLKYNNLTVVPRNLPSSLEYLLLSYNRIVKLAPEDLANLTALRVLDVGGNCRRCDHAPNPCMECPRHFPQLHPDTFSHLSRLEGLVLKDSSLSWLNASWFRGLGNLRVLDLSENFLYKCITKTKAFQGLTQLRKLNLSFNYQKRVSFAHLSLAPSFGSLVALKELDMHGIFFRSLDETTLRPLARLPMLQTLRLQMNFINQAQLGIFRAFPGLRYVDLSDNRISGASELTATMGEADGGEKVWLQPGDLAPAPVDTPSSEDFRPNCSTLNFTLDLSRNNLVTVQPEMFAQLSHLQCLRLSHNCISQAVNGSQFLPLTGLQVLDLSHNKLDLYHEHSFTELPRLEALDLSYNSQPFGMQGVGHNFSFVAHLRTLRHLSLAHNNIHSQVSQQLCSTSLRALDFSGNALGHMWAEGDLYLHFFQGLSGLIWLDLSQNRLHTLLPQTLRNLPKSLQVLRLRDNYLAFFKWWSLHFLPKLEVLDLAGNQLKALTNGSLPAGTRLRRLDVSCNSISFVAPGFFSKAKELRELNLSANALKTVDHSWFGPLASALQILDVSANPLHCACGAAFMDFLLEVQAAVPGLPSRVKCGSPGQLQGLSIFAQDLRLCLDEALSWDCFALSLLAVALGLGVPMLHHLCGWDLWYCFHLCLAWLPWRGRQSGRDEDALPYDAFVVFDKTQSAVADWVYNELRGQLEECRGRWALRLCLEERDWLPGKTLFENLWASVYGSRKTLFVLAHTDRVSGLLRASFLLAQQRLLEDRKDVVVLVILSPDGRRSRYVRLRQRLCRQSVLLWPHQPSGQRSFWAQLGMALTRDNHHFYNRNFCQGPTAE
Summary of the method: as §1

human TLR8 = target: T3, human TLR8 (Homo sapiens, UniProt Q9NR97); assay: TLR8 inhibition reporter assay (HEK-Blue cells, SEAP reporter, R848 stimulation); conditions: HEK-Blue cells overexpressing human TLR8, SEAP reporter, R848 15.9 μM
T3 construct: host or cells: HEK-Blue cells
T3 sequence (Q9NR97 27-1041): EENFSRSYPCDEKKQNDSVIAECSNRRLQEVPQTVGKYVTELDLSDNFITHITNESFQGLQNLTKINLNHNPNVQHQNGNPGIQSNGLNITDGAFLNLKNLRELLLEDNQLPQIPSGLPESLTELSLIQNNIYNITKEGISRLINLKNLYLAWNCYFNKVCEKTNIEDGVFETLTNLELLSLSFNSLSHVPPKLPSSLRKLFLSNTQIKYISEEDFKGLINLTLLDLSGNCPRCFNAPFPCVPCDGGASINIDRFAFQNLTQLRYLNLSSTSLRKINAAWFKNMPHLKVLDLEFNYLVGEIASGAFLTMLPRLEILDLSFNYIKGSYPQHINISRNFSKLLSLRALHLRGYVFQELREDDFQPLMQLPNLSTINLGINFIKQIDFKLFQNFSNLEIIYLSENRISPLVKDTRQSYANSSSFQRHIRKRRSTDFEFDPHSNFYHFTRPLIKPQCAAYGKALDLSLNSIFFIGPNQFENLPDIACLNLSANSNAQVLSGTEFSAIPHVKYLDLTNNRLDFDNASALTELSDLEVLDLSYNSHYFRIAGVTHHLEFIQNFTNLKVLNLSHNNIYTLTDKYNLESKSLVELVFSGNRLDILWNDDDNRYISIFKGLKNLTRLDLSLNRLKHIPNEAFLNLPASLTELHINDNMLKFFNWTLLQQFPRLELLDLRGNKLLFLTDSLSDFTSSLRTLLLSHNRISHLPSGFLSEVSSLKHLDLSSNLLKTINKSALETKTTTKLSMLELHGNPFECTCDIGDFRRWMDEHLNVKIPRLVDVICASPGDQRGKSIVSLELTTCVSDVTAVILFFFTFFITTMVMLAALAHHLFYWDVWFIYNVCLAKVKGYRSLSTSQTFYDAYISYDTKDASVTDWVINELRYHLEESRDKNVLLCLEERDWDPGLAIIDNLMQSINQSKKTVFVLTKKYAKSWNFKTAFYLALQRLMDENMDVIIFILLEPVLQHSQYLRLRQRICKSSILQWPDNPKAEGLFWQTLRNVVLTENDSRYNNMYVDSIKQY
Summary of the method: as §1

CCc1c(-c2ccc(OC)c(OC)c2)[nH]c2ccc(CC3CCCN3)cc12 (stereo not drawn) [Example 419] gave a pIC50 (human TLR7) of 6.38, a pIC50 (human TLR9) of 5.43 and a pIC50 (human TLR8) of 7.57.

Molecule Cc1c(-c2[nH]c3ccc(C4CN(C)C4)cc3c2C(C)C)cn2cnnc2c1C [Example 533] has a pIC50 (human TLR7) of 8.10, a pIC50 (human TLR9) of 5.66 and a pIC50 (human TLR8) of 7.38.

COc1cc(-c2[nH]c3ccc(CCC4CN(C)C4)cc3c2C(C)C)cn2ncnc12 [Example 438] gave a pIC50 (human TLR7) of 8.30, a pIC50 (human TLR9) of 5.68 and a pIC50 (human TLR8) of 7.43.

Work on COCCN(C)C1CCC(c2ccc3[nH]c(-c4cn5ncnc5c(C)c4C)c(C(C)C)c3c2)CC1 (single isomer, unassigned) [Example 152, 4-(2-(7,8-dimethyl-[1,2,4]triazolo[1,5-a]pyridin-6-yl)-3-isopropyl-1H-indol-5-yl)-N-(2-methoxyethyl)-N-methylcyclohexanamine] yielded a pIC50 (human TLR7) of 8.40, a pIC50 (human TLR9) of 5.55 and a pIC50 (human TLR8) of 8.47.

In the case of COc1cc(-c2[nH]c3ccc(CC4CNC4)cc3c2C(C)C)cn2ncnc12 [Example 430], the pIC50 (human TLR7) was 7.92, the pIC50 (human TLR9) was 6.07 and the pIC50 (human TLR8) was 7.39.

In the case of COc1cc(-c2[nH]c3ccc(C4CCC(N5CCC[C@H]5C(N)=O)CC4)cc3c2C(C)C)cn2ncnc12 (stereo partly drawn) [Example 29], the pIC50 (human TLR7) was 9.59, the pIC50 (human TLR9) was 6.04 and the pIC50 (human TLR8) was 8.72.

Work on Cc1cc(-c2[nH]c3ccc(C4CCC(N5CCOCC5)CC4)cc3c2C(C)C)cc(C)n1 (stereo not drawn) [Example 497] yielded a pIC50 (human TLR7) of 9.00, a pIC50 (human TLR9) of 6.19 and a pIC50 (human TLR8) of 8.64.

For COc1cc(-c2[nH]c3ccc(C4CCC(N5CCC[C@H]5C(N)=O)CC4)cc3c2C(C)C)cn2ncnc12 (stereo partly drawn) [Example 31], the pIC50 (human TLR7) was 9.00, the pIC50 (human TLR9) was 5.68 and the pIC50 (human TLR8) was 8.21.

COc1cc(-c2[nH]c3ccc(C4CCC(N)CC4)cc3c2C(C)C)cn2ncnc12 (single isomer, unassigned) [Example 1, 4-(3-isopropyl-2-(8-methoxy-[1,2,4]triazolo[1,5-a]pyridin-6-yl)-1H-indol-5-yl) cyclohexanamine] gave a pIC50 (human TLR7) of 9.31, a pIC50 (human TLR9) of 6.10 and a pIC50 (human TLR8) of 8.89.

Cc1cc(-c2[nH]c3ccc(C4CN(CC(C)(C)O)CCO4)cc3c2C(C)C)cc(C)n1 (stereo not drawn) [Example 358] was tested, and the pIC50 (human TLR7) was 7.04, the pIC50 (human TLR9) was 5.32 and the pIC50 (human TLR8) was 8.72.

In the case of Cc1cc(-c2[nH]c3ccc(C4CCC(NC5(C)COC5)CC4)cc3c2C(C)C)cn2ncnc12 (single isomer, unassigned) [Example 46], the pIC50 (human TLR7) was 10.00, the pIC50 (human TLR9) was 5.82 and the pIC50 (human TLR8) was 9.08.

Molecule Cc1cc(-c2[nH]c3ccc(C4CCC(NC(=O)CN(C)C)CC4)cc3c2C(C)C)cc(C)n1 (stereo not drawn) [Example 120] has a pIC50 (human TLR7) of 8.40, a pIC50 (human TLR9) of 6.49 and a pIC50 (human TLR8) of 7.68.

Molecule Cc1cc(-c2[nH]c3ccc(C4CN(C(=O)CN(C)C)CCO4)cc3c2C(C)C)cn2ncnc12 (stereo not drawn) [Example 331] has a pIC50 (human TLR7) of 9.00, a pIC50 (human TLR9) of 5.44 and a pIC50 (human TLR8) of 8.34.
